According to patent US20240158446A1, “CYCLIC COMPOUND HAVING SELECTIVE INHIBITORY ACTION ON KRAS OVER HRAS AND NRAS” (CHUGAI SEIYAKU KABUSHIKI KAISHA, priority 2021, published 2024):

How the values were obtained:
[1] = tested on: human lung cancer strain NCI-H441; test: cells; conditions: NCI-H441, 96 h, read-out: NCI-H441 IC50 (nM), NCI-H441 cell proliferation, 4 days, CellTiter-Glo;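 further: cell proliferation inhibition after four days measured by CellTiter-Glo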
[2] = molecular target: GDP-bound HRAS wild-type protein (Homo sapiens, UniProt P01112); test: Binding to HRAS by surface plasmon resonance (SPR), Single Cycle Kinetics; conditions: ratio of KD for GDP-bound HRAS wild-type protein to KD for KRAS, SPR
Sequence of GDP-bound HRAS wild-type protein (P01112 whole entry): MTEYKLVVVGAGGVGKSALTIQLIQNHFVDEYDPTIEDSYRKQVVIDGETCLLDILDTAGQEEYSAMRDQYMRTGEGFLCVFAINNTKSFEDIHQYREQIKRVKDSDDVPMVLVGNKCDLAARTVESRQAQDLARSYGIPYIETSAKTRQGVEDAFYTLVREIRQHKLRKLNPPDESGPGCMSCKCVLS

[3] = molecular target: GDP-bound NRAS wild-type protein (Homo sapiens, UniProt P01111); test: Binding to NRAS by surface plasmon resonance (SPR), Single Cycle Kinetics; conditions: ratio of KD for GDP-bound NRAS wild-type protein to KD for KRAS, SPR
Sequence of GDP-bound NRAS wild-type protein (P01111 whole entry): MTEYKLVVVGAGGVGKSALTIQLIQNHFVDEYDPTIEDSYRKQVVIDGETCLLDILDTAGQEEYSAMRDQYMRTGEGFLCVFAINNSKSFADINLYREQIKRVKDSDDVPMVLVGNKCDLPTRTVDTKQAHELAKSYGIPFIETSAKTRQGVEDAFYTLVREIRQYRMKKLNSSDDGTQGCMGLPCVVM

[4] = molecular target: GDP-bound KRAS wild-type protein (Homo sapiens, UniProt P01116); test: Binding to KRAS by surface plasmon resonance (SPR), Single Cycle Kinetics; conditions: SPR, Single Cycle Kinetics, GDP-bound KRAS wild-type protein; read-out: KRAS KD
Sequence of GDP-bound KRAS wild-type protein (P01116 whole entry): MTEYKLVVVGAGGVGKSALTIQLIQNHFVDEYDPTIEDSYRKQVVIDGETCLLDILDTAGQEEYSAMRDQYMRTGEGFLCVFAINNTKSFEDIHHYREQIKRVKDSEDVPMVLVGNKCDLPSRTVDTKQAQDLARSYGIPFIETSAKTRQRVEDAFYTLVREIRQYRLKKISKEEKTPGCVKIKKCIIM

Structure (SMILES)	IC50 [1] [nM]	HRAS/KRAS (KD ratio) [2]	NRAS/KRAS (KD ratio) [3]	Kd [4] [nM]
CCO[C@@H]1C[C@H]2C(=O)NC3(CC(F)(F)C3)C(=O)N(C)[C@@H](C(CC)CC)C(=O)N(C)[C@H](CC)CC(=O)N(C)[C@@H](CC)C(=O)N[C@@H]([C@@H](C)CC)C(=O)N(C)CC(=O)N(C)[C@H]3C/C=C\CCN(C3=O)[C@@H](Cc3ccc(C(F)(F)F)cc3)C(=O)N(C)CC(=O)N[C@@H](CCc3cc(F)c(C(F)(F)F)c(F)c3)C(=O)N2C1 [PP1626]	108	A (a compound having 10 or more and less than 20 is denoted as A)	A (a compound having 10 or more and less than 20 is denoted as A)	3
CCO[C@@H]1C[C@H]2C(=O)NC3(CC(F)(F)C3)C(=O)N(C)[C@@H](C3CCCC3)C(=O)N(C)[C@H](CC)CC(=O)N(C)[C@@H](CC)C(=O)N[C@@H]([C@@H](C)CC)C(=O)N(C)CC(=O)N(C)[C@H]3C/C=C\CCN(C3=O)[C@@H](Cc3ccc(C(F)(F)F)cc3)C(=O)N(C)CC(=O)N[C@@H](CCc3cc(F)c(C(F)(F)F)c(F)c3)C(=O)N2C1 [PP1627]	22.9	A (a compound having 10 or more and less than 20 is denoted as A)	A (a compound having 10 or more and less than 20 is denoted as A)	0.25
CCO[C@@H]1C[C@H]2C(=O)NC3(CC(C)(C)C3)C(=O)N(C)[C@@H](C(CC)CC)C(=O)N(C)[C@H](CC)CC(=O)N(C)[C@@H](CC3CC3)C(=O)N[C@@H]([C@@H](C)CC)C(=O)N(C)CC(=O)N(C)[C@H]3C/C=C\CCN(C3=O)[C@@H](Cc3ccc(C(F)(F)F)cc3)C(=O)N(C)CC(=O)N[C@@H](CCc3cc(F)c(C(F)(F)F)c(F)c3)C(=O)N2C1 [PP1628]	150	A (a compound having 10 or more and less than 20 is denoted as A)	A (a compound having 10 or more and less than 20 is denoted as A)	2.5
CCO[C@@H]1C[C@H]2C(=O)NC3(CC(C)(C)C3)C(=O)N(C)[C@@H](C3CCCC3)C(=O)N(C)[C@H](CC)CC(=O)N(C)[C@@H](CC3CC3)C(=O)N[C@@H]([C@@H](C)CC)C(=O)N(C)CC(=O)N(C)[C@H]3C/C=C\CCN(C3=O)[C@@H](Cc3ccc(C(F)(F)F)cc3)C(=O)N(C)CC(=O)N[C@@H](CCc3cc(F)c(C(F)(F)F)c(F)c3)C(=O)N2C1 [PP1629]	20.7	B (a compound having 3 or more and less than 10 is denoted as B)	B (a compound having 3 or more and less than 10 is denoted as B)	0.36
CCO[C@@H]1C[C@H]2C(=O)NC3(CCC3)C(=O)N(C)[C@@H](C(CC)CC)C(=O)N(C)[C@H](CC)CC(=O)N(C)[C@@H](CC3CC3)C(=O)N[C@@H]([C@@H](C)CC)C(=O)N(C)CC(=O)N(C)[C@H]3C/C=C\CCN(C3=O)[C@@H](Cc3ccc(C(F)(F)F)cc3)C(=O)N(C)CC(=O)N[C@@H](CCc3cc(F)c(C(F)(F)F)c(F)c3)C(=O)N2C1 [PP1630]	144	A (a compound having 10 or more and less than 20 is denoted as A)	A (a compound having 10 or more and less than 20 is denoted as A)	1.8
CCO[C@@H]1C[C@H]2C(=O)NC3(CC(F)(F)C3)C(=O)N(C)[C@@H](C(CC)CC)C(=O)N(C)[C@H](CC)CC(=O)N(C)[C@@H](CC3CC3)C(=O)N[C@@H]([C@@H](C)CC)C(=O)N(C)CC(=O)N(C)[C@H]3C/C=C\CCN(C3=O)[C@@H](Cc3ccc(C(F)(F)F)cc3)C(=O)N(C)CC(=O)N[C@@H](CCc3cc(F)c(C(F)(F)F)c(F)c3)C(=O)N2C1 [PP1632]	116	A (a compound having 10 or more and less than 20 is denoted as A)	A (a compound having 10 or more and less than 20 is denoted as A)	3.7
CCO[C@@H]1C[C@H]2C(=O)NC3(CC(F)(F)C3)C(=O)N(C)[C@@H](C3CCCC3)C(=O)N(C)[C@H](CC)CC(=O)N(C)[C@@H](CC3CC3)C(=O)N[C@@H]([C@@H](C)CC)C(=O)N(C)CC(=O)N(C)[C@H]3C/C=C\CCN(C3=O)[C@@H](Cc3ccc(C(F)(F)F)cc3)C(=O)N(C)CC(=O)N[C@@H](CCc3cc(F)c(C(F)(F)F)c(F)c3)C(=O)N2C1 [PP1633]	15.1	B (a compound having 3 or more and less than 10 is denoted as B)	A (a compound having 10 or more and less than 20 is denoted as A)	0.6
CCO[C@@H]1C[C@H]2C(=O)NC3(CC(C)(C)C3)C(=O)N(C)[C@@H](C(CC)CC)C(=O)N(C)[C@H](C3CCC3)CC(=O)N(C)[C@@H](CC3CC3)C(=O)N[C@@H]([C@@H](C)CC)C(=O)N(C)CC(=O)N(C)[C@H]3C/C=C\CCN(C3=O)[C@@H](Cc3ccc(C(F)(F)F)cc3)C(=O)N(C)CC(=O)N[C@@H](CCc3cc(F)c(C(F)(F)F)c(F)c3)C(=O)N2C1 [PP1634]	144	A (a compound having 10 or more and less than 20 is denoted as A)	A (a compound having 10 or more and less than 20 is denoted as A)	5.1
CCO[C@@H]1C[C@H]2C(=O)NC3(CC(C)(C)C3)C(=O)N(C)[C@@H](C3CCCC3)C(=O)N(C)[C@H](C3CCC3)CC(=O)N(C)[C@@H](CC3CC3)C(=O)N[C@@H]([C@@H](C)CC)C(=O)N(C)CC(=O)N(C)[C@H]3C/C=C\CCN(C3=O)[C@@H](Cc3ccc(C(F)(F)F)cc3)C(=O)N(C)CC(=O)N[C@@H](CCc3cc(F)c(C(F)(F)F)c(F)c3)C(=O)N2C1 [PP1635]	36.3	A (a compound having 10 or more and less than 20 is denoted as A)	B (a compound having 3 or more and less than 10 is denoted as B)	0.64
CCO[C@@H]1C[C@H]2C(=O)NC3(CCC3)C(=O)N(C)[C@@H](C3CCCC3)C(=O)N(C)[C@H](C3CCC3)CC(=O)N(C)[C@@H](CC3CC3)C(=O)N[C@@H]([C@@H](C)CC)C(=O)N(C)CC(=O)N(C)[C@H]3C/C=C\CCN(C3=O)[C@@H](Cc3ccc(C(F)(F)F)cc3)C(=O)N(C)CC(=O)N[C@@H](CCc3cc(F)c(C(F)(F)F)c(F)c3)C(=O)N2C1 [PP1637]	32.5	A (a compound having 10 or more and less than 20 is denoted as A)	A (a compound having 10 or more and less than 20 is denoted as A)	0.32
CCO[C@@H]1C[C@H]2C(=O)NC3(CC(F)(F)C3)C(=O)N(C)[C@@H](C3CCCC3)C(=O)N(C)[C@H](C3CCC3)CC(=O)N(C)[C@@H](CC3CC3)C(=O)N[C@@H]([C@@H](C)CC)C(=O)N(C)CC(=O)N(C)[C@H]3C/C=C\CCN(C3=O)[C@@H](Cc3ccc(C(F)(F)F)cc3)C(=O)N(C)CC(=O)N[C@@H](CCc3cc(F)c(C(F)(F)F)c(F)c3)C(=O)N2C1 [PP1639]	44.8	A (a compound having 10 or more and less than 20 is denoted as A)	A (a compound having 10 or more and less than 20 is denoted as A)	0.68
CCO[C@@H]1C[C@H]2C(=O)NC3(CC(C)(C)C3)C(=O)N(C)[C@@H](C3CCCC3)C(=O)N(C)[C@H](C(=O)N(C)C)CC(=O)N(C)[C@@H](C)C(=O)N[C@@H]([C@@H](C)CC)C(=O)N(C)CC(=O)N(C)[C@H]3C/C=C\CCN(C3=O)[C@@H](Cc3ccc(C(F)(F)F)cc3)C(=O)N(C)CC(=O)N[C@@H](CCc3cc(F)c(C(F)(F)F)c(F)c3)C(=O)N2C1 [PP1641]	4.6	A (a compound having 10 or more and less than 20 is denoted as A)	A (a compound having 10 or more and less than 20 is denoted as A)	0.098
